Source: PubChem BioAssay (NCI)
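In this assay, cells in 96-well plates receive the compound at five concentrations for 48 hours. Endpoints are linearly interpolated between the surrounding concentrations. GI50: concentration for 50% inhibition of growth. TGI is the concentration that stops growth completely.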

What was measured:
Experiment in all cases: growth of human tumour cells (NCI), 48 h
[1] = system: MDA-N
[2] = system: LOX IMVI melanoma
[3] = system: MCF7 breast
[4] = system: BT-549 breast
[5] = system: SK-MEL-5 melanoma
[6] = system: SNB-75 CNS
[7] = system: UACC-257 melanoma
[8] = system: CCRF-CEM leukemia
[9] = system: RXF 393 renal
[10] = system: SK-MEL-2 melanoma
[11] = system: OVCAR-5 ovarian

Structure (SMILES)	TGI [1] [µM]	TGI [2] [µM]	TGI [3] [µM]	TGI [4] [µM]	TGI [5] [µM]	TGI [6] [µM]	TGI [7] [µM]	TGI [8] [µM]	TGI [9] [µM]	TGI [10] [µM]	TGI [11] [µM]	GI50 [2] [µM]	GI50 [10] [µM]	GI50 [6] [µM]	GI50 [7] [µM]	GI50 [11] [µM]	GI50 [8] [µM]	GI50 [3] [µM]	GI50 [9] [µM]	GI50 [5] [µM]
C=CCOCn1cc(C)c(=O)[nH]c1=O	> 100	> 100	> 100	> 100	> 100	> 100	> 100	> 100												
Cc1cc(=O)[nH]c(NN2C(Cl)C(=O)C2c2cccc(Cl)c2)n1 (stereo unspecified)		32.8			34.2	62.8	> 100	41.7	23.2	35.8	> 100									
O=C(NNc1nc(-c2ccccc2)cs1)C(F)(F)F		> 100	> 100		> 100	91	> 100	> 100	> 100	> 100	> 100									
CCOC(=O)N(c1ccccc1)N(CC)C(=O)/C(C)=N/Nc1ccc([N+](=O)[O-])cc1						35.2	29.3	42	26.2	30										
COc1cc2nc(-c3cccs3)[nH]c(=O)c2cc1OC		> 100	> 100	> 100	> 100	> 100	> 100	> 100	> 100	> 100	> 100									
Cc1ccc(NC(=O)C(=O)CC(=O)c2sc(Nc3c(C)cccc3C)nc2C)cc1C	> 100	> 100	> 100	> 100	> 100		> 100	> 100	> 100	> 100	> 100									
N#C/C(=C/NC(=S)c1ccncc1)C(N)=O	> 100	> 100	> 100	> 100	> 100	> 100	> 100		> 100	> 100	> 100									
S=C(Nc1ccc2cn[nH]c2c1)Nc1ccc2cn[nH]c2c1	> 100	> 100	> 100	> 100	> 100	> 100	> 100		> 100	> 100	> 100									
CC(C)(C)N(Cc1ccc2c(c1)OCO2)C(=O)/C=C\Sc1ccccc1	> 100	> 100	> 100	> 100	> 100		> 100	> 100		> 100	> 100									
CCOC(=O)C1=C(C)N(c2ccc(OC)cc2)C2(O)C=CC(=O)C3=C(O)c4ccccc4C(=O)C312 (stereo unspecified)	34	22.4	19.2	29	24.6		31.2	15.9		31	33.4									
O=C1Nc2ccccc2Nc2ccncc21		> 100	> 100		> 100	> 100	> 100	> 100	> 100	> 100	> 100									
CC(=O)[CH-]C(=O)c1ccccc1.CC(=O)[CH-]C(=O)c1ccccc1.C[C@]12CCC(=O)C=C1CC[C@@H]1C2CC[C@@]2(C)C1CC[C@]2(C)[O-].C[C@]12CCC(=O)C=C1CC[C@@H]1C2CC[C@@]2(C)C1CC[C@]2(C)[O-].Cl.[Ti+4] (stereo partly specified)		48.8				43.7	51.7	> 100		33.2	> 100	18.6	13.9	15.7	18	16.5	9.78			
O=C(CCc1ccccc1)ON1C(=S)C(c2ccccc2)(c2ccccc2)N=C1Sc1ccccc1		42.4	> 100	> 100	> 100	> 100	> 100	> 100	> 100	> 100	> 100									
COc1cc(-c2ccccc2N)c2cccnc2c1OC	20.2	15.3	18.3	22.2	26.3		24.8	22.5	34.6	26.5										
CN(C)c1cccc(NC2=NCCO2)c1	32.8	> 100	> 100		> 100	> 100	> 100	> 100	> 100	48.7	> 100									
CCN(CC)c1ccc2cc(C(=O)Nc3ccccn3)c(=N)oc2c1	> 100	> 100		> 100	> 100	> 100	> 100	> 100	> 100	95.7	> 100									
Oc1[nH]c2ccccc2c1/C=c1/cc2c(c(-c3ccc(F)cc3)n1)=Nc1ccccc1-2			2.57		3.06	1.27	2.88	3.25	1.96	1.34	4.39		0.327	0.227	0.714	1.36	0.648	0.817	0.634	1.41
Cc1ccccc1NC(=O)Cc1csc2[n+]1C(=O)/C(=C/c1ccc([N+](=O)[O-])cc1)S2	> 100	> 100	> 100	38.6	> 100	63.1	> 100			> 100	> 100									
Cc1nc2ccccc2c(/C=C/c2ccc(Cl)cc2)c1C(=O)/C=C/c1ccc(Cl)cc1		2.55			3			> 100	3			1.22					0.605		1.52	1.62
COc1cc(N(Cc2ccc3oc(=O)c(-c4ccccc4)nc3c2)Cc2ccc3oc(=O)c(-c4ccccc4)nc3c2)cc(OC)c1OC	> 10	> 10	> 10		> 10	> 10	> 10	> 10	> 10	> 10	> 10									
COc1ccc(C(OCC2OC(n3ccc(NC(=O)c4ccccc4)nc3=O)CC2OP2(=S)SCCS2)(c2ccccc2)c2ccc(OC)cc2)cc1 (stereo unspecified)	> 10	33.1	> 100	53.6	43.9	46.6	> 100		88.1	> 100	94.6									
